# Results reported in US5962487A, “Antipicornaviral compounds and methods for their use and preparation” (Agouron Pharmaceuticals, Inc., priority 1997, dated 1999).
# How the values were obtained:
# [1] = target: T1, Rhinovirus 3C protease (RVP) serotype 16 (Human rhinovirus 16, UniProt Q82122); test: Inhibition of Rhinovirus Protease, serotype 16 (FRET assay); type: biochemical; conditions: enzyme start experiments, read-out: kobs/I
# T1 construct: Recombinant Rhinovirus 3C proteases from serotypes 14, 16, 2 or 89 were prepared; made in house
# Method: (§1) Stock solutions (50 mM, in DMSO) of various compounds were prepared; dilutions were in the same solvent. Recombinant Rhinovirus 3C proteases from serotypes 14, 16, 2 or 89 were prepared by the following standard chromatographic procedures: (1) ion exchange using Q Sepharose Fast Flow from Pharmacia; (2) affinity chromatography using Affi-Gel Blue from Biorad; and (3) sizing using Sephadex G-100 from Pharmacia. Assays contained 2% DMSO, 50 mM tris pH 7.6, 1 mM EDTA, a compound at the indicated concentrations, approximately 1 μM substrate, and 50-100 nM protease. For Ki determinations, the compound and the enzyme were preincubated for 10 minutes at 30° C. prior to addition of the substrate (substrate start). The kobs/I values were obtained from reactions initiated by addition of enzyme rather than substrate. RVP activity is measured in the fluorescence resonance energy transfer assay. The substrate was (N-terminal) DABCYL-(Gly-Arg-Ala-Val-Phe-Gln-Gly-Pro-Val-Gly)-EDANS. In the uncleaved peptide, the EDANS fluorescence was quenched by the proximal DABCYL moiety. When the peptide was cleaved, the quenching was relieved, and activity was measured as an increase in fluorescence signal.
# (§2) In the above table, all data is for RVP serotype-14 unless otherwise noted in parentheses. All strains of human rhinovirus (HRV) were purchased from American Type Culture Collection (ATCC), except for serotype 14, which was produced from the infectious cDNA clone constructed and supplied to us by Dr. Roland Rueckert at the Institute for Molecular Virology, University of Wisconsin, Madison, Wis. The column designated INHIB represents the percent inhibition, with the concentration of the compound in μM indicated in parentheses, unless Ki was assigned as designated by (Ki), at 10 minute preincubation with 50 nM RVP prior to addition of substrate was used. The data in the column designated kobs/I was measured from progress curves in enzyme start experiments.
# [2] = target: T2, Rhinovirus 3C protease (RVP) serotype-14 (Human rhinovirus 14, UniProt P03303); test: Inhibition of Rhinovirus Protease, serotype 14 (FRET assay); type: biochemical; conditions: for kinact/KI: read-out: kobs/I; for Ki: RVP serotype-14, 10 minute preincubation with 50 nM RVP prior to addition of substrate, read-out: INHIB (Ki)
# T2 construct: Recombinant Rhinovirus 3C proteases from serotypes 14, 16, 2 or 89 were prepared; made in house
# Method: as §1, §2
# in vitro = type: cell-based; conditions: human, hi-hela cells
# Method: (§3) HI-HeLa cells were infected with HRV-14 (unless otherwise noted) at a multiplicity of infection (m.o.i.) of 0.13 (virus particles/cell) or mock-infected with medium only. Infected or mock-infected cells were resuspended at 8×10^5 cells per mL and incubated with appropriate concentrations of compounds of formulas I and II. Two days later, XTT/PMS was added to test plates, and the amount of formazan produced was quantified spectrophotometrically at 450/650 nm. The EC50 was calculated as the concentration of compound that increased the percentage of formazan production in compound-treated, virus-infected cells to 50% of that produced by compound-free mock-infected cells. The 50% cytotoxic dose (CC50) was calculated as the concentration of compound that decreased the percentage of formazan produced in compound-treated, mock-infected cells to 50% of that produced in compound-free, mock-infected cells. The therapeutic index (TI) was calculated by dividing the CC50 by the EC50.
# (§4) All strains of human rhinovims (HRV) for use in this assay were purchased from American Type Culture Collection (ATCC), except for HRV serotype-14, which was produced from the infectious cDNA clone, constructed and supplied to us by Dr. Roland Rueckert at the Institute for Molecular Virology, University of Wisconsin, Madison, Wis. HRV stocks were propagated, and antiviral assays were performed in HI-HeLa (ATCC). Cells were grown in Minimal Essential Medium, available from Life Technologies, with 10% fetal bovine serum.
# [3] = target: T3, Rhinovirus 3C protease (RVP) serotype 2 (Human rhinovirus 2, UniProt P04936); test: Inhibition of Rhinovirus Protease, serotype 2 (FRET assay); type: biochemical; conditions: enzyme start experiments, read-out: kobs/I
# T3 construct: Recombinant Rhinovirus 3C proteases from serotypes 14, 16, 2 or 89 were prepared; made in house
# Method: as §1, §2
# HRV-14 = test: Antirhinoviral HI-HeLa Cell Culture Assay (cell protection, XTT), HRV-14; type: cell-based, human rhinovirus; conditions: for TI: CC50/EC50, HRV serotype-14, 2880 min; for EC50: Rhinovirus B, HRV14, 48 h, HRV serotype-14 infected HI-HeLa cells, XTT, two days
# Method: In the Cell Protection Assay, the ability of compounds to protect cells against HRV infection was measured by the XTT dye reduction method. This method is described in O. S. Weislow, R. Kiser, D. L. Fine, J. Bader, R. H. Shoemaker, and M. R. Boyd, J. Natl. Cancer Inst. 1989, 81, 577-586, which document is entirely incorporated herein by reference.
# as §3, §4
# The compounds were tested against control compounds WIN 51711, WIN 52084, and WIN 54954, all obtained from Sterling-Winthrop Pharmaceuticals, and control compound Pirodavir, obtained from Janssen Pharmaceuticals. Antiviral data obtained for the test compounds are shown in Table 2 where all data are for HRV serotype-14 unless otherwise noted in parentheses.
# T3 sequence (P04936 1508-1690): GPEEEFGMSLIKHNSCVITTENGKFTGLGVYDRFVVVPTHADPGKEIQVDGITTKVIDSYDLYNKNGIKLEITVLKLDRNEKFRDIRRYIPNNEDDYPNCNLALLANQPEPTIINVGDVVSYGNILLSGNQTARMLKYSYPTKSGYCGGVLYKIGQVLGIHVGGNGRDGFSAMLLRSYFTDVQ
# T2 sequence (P03303 1538-1719): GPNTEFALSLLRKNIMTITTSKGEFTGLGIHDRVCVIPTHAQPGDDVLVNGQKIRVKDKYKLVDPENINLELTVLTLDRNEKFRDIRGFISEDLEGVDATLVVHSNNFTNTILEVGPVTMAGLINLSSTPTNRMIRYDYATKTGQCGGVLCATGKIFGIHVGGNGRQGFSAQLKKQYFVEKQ
# T1 sequence (Q82122 1511-1693): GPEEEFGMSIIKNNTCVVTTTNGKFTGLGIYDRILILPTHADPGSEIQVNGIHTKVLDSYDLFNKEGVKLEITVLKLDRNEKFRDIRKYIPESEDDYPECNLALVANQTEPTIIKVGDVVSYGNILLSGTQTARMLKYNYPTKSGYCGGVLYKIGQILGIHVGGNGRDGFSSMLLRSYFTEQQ
smiles,measurement,setting,value
"CCOC(=O)/C=C/[C@H](CCC(N)=O)NC(=O)[C@H](Cc1ccc(C)cc1)N(C)C(=O)[C@H](CCc1ccccc1)NC(=O)SCc1ccccc1 [Compound 13, Ethyl-3-[Benzylthiocarbonyl-L-hPhe-L-N-Me-(4-Me-Phe)-L-Gln] -E-Propenoate]",kinact/KI,[1],11700 M⁻¹ s⁻¹
same,kinact/KI,[2],356000 M⁻¹ s⁻¹
same,CC50 at 48 h,in vitro,17.8 µM
same,kinact/KI,[3],3980 M⁻¹ s⁻¹
same,TI,HRV-14,148
same,EC50,HRV-14,0.12 µM
"CCOC(=O)/C=C/[C@H](CCC(N)=O)NC(=O)[C@H](Cc1ccc(OC)cc1)N(C)C(=O)[C@H](CC(C)C)NC(=O)OCc1ccccc1 [Compound 3, Ethyl-3-[CBZ-L-Leu-L-N-Me-(OMe)-Tyr-L-Gln]-E-Propenoate]",kinact/KI,[1],929 M⁻¹ s⁻¹
same,Ki,[2],12 µM
same,kinact/KI,[2],16600 M⁻¹ s⁻¹
same,CC50 at 48 h,in vitro,41.7 µM
same,kinact/KI,[3],292 M⁻¹ s⁻¹
same,TI,HRV-14,232
same,EC50,HRV-14,0.18 µM
"CCOC(=O)/C(C)=C/[C@H](CCC(N)=O)NC(=O)[C@H](Cc1ccc(C)cc1)N(C)C(=O)[C@H](CCc1ccccc1)NC(=O)SCc1ccccc1 [Compound 14, Ethyl-2-Methyl-3-[Benylthiocarbonyl-L-hPhe-L-N-Me-(4-Me)-Phe-L-Gln]-E-Propenoate]",kinact/KI,[1],1800 M⁻¹ s⁻¹
same,Ki,[2],0.8 µM
same,kinact/KI,[2],56400 M⁻¹ s⁻¹
same,CC50 at 48 h,in vitro,15.8 µM
same,kinact/KI,[3],800 M⁻¹ s⁻¹
same,TI,HRV-14,49
same,EC50,HRV-14,0.32 µM
"CCOC(=O)/C=C/[C@H](CCC(N)=O)NC(=O)C1CNCCN1C(=O)[C@H](CC(C)C)NC(=O)OCc1ccccc1 (mixture of isomers) [Compound 27, Ethyl-3-(CBZ-L-Leu-DL-Pipz-L-Gln)-E-Propenoate]",kinact/KI,[1],90 M⁻¹ s⁻¹
same,kinact/KI,[2],102 M⁻¹ s⁻¹
same,CC50 at 48 h,in vitro,> 320 µM
same,kinact/KI,[3],87 M⁻¹ s⁻¹
same,EC50,HRV-14,> 320 µM
"CCOC(=O)/C=C/[C@H](CCC(N)=O)NC(=O)[C@@H]1CCCN1C(=O)[C@H](CC(C)C)NC(=O)SCC [Compound 24, Ethyl-3-(Ethythiocarbonyl-L-Leu-L-Pro-L-Gln)-E-Propenoate]",kinact/KI,[1],9300 M⁻¹ s⁻¹
same,Ki,[2],8 µM
same,kinact/KI,[2],22000 M⁻¹ s⁻¹
same,CC50 at 48 h,in vitro,> 100 µM
same,kinact/KI,[3],7100 M⁻¹ s⁻¹
same,TI,HRV-14,> 10
same,EC50,HRV-14,10 µM
"CCOC(=O)/C=C/[C@H](CCC(N)=O)NC(=O)[C@@H]1CCCCN1C(=O)[C@H](CC(C)C)NC(=O)OCc1ccccc1 [Compound 25, Ethyl-3-[CBZ-L-Leu-L-Pip-L-Gln]-E-Propenoate]",kinact/KI,[1],770 M⁻¹ s⁻¹
same,kinact/KI,[2],1470 M⁻¹ s⁻¹
same,CC50 at 48 h,in vitro,> 320 µM
same,kinact/KI,[3],1280 M⁻¹ s⁻¹
same,TI,HRV-14,> 23
same,EC50,HRV-14,14 µM
"CCOC(=O)/C=C/[C@H](CCC(N)=O)NC(=O)[C@@H]1CCc2ncc(NC(=O)OCc3ccccc3)c(=O)n21 [Compound 37, Ethyl-3-[(S)-3-(CBZ-Amino)4-Oxo-4,6,7,8-Tetrahydropyrrolo [1,2-α]Pyrimidine-6-L-Gln]-E-Propenoate]",kinact/KI,[1],4000 M⁻¹ s⁻¹
same,kinact/KI,[2],12400 M⁻¹ s⁻¹
same,CC50 at 48 h,in vitro,> 100 µM
same,kinact/KI,[3],2500 M⁻¹ s⁻¹
same,TI,HRV-14,> 11
same,EC50,HRV-14,8.9 µM
"CCOC(=O)/C(C)=C/[C@H](CCC(N)=O)NC(=O)[C@H](Cc1ccccc1)N(C)C(=O)[C@H](CC(C)C)NC(=O)SCc1ccccc1 [Compound 16, Ethyl-2-Methyl-3-(Benzylthiocarbonyl-L-Leu-L-N-Me-Phe-L-Gln)-E-Propenoate]",kinact/KI,[1],1000 M⁻¹ s⁻¹
same,Ki,[2],12 µM
same,kinact/KI,[2],8300 M⁻¹ s⁻¹
same,CC50 at 48 h,in vitro,32 µM
same,kinact/KI,[3],600 M⁻¹ s⁻¹
same,TI,HRV-14,19
same,EC50,HRV-14,1.7 µM
"CCOC(=O)/C=C/[C@H](CCC(N)=O)NC(=O)[C@H](Cc1ccccc1)N(C)C(=O)[C@@H](NC(=O)SC1CCCC1)C(C)C [Compound 35, Ethyl-3-(Cyclopentylthiocarbonyl-L-Val-L-N-Me-PHe-L-Gln-)-E-Propenoate]",kinact/KI,[1],3480 M⁻¹ s⁻¹
same,kinact/KI,[2],22500 M⁻¹ s⁻¹
same,CC50 at 48 h,in vitro,> 100 µM
same,kinact/KI,[3],1600 M⁻¹ s⁻¹
same,TI,HRV-14,> 526
same,EC50,HRV-14,0.19 µM
"CCOC(=O)/C=C/[C@H](CCC(N)=O)NC(=O)[C@H](Cc1ccccc1)N(C)C(=O)[C@H](CC(C)C)NC(=O)SCc1ccccc1 [Compound 15, Ethyl-3-(Benzylthiocarbonyl-L-Leu-L-N-Me-Phe-L-Gln)-E-Propenoate]",kinact/KI,[1],5600 M⁻¹ s⁻¹
same,Ki,[2],2.5 µM
same,kinact/KI,[2],36400 M⁻¹ s⁻¹
same,CC50 at 48 h,in vitro,50.1 µM
same,kinact/KI,[3],3500 M⁻¹ s⁻¹
same,TI,HRV-14,192
same,EC50,HRV-14,0.26 µM
"CCSC(=O)N[C@@H](CC(C)C)C(=O)N(C)[C@@H](Cc1ccccc1)C(=O)N[C@H](/C=C/C(=O)N(C)OC)CCC(N)=O [Compound 36, N-Methoxy-N-Methyl-3-(Ethylthiocarbonyl-L-Leu-L-N-Me-Phe-L-Gln)-E-Propenamide]",kinact/KI,[1],750 M⁻¹ s⁻¹
same,kinact/KI,[2],2000 M⁻¹ s⁻¹
same,CC50 at 48 h,in vitro,> 100 µM
same,kinact/KI,[3],400 M⁻¹ s⁻¹
same,TI,HRV-14,> 9
same,EC50,HRV-14,11.2 µM
CCOC(=O)/C=C/[C@H](CCC(N)=O)NC(=O)[C@H](Cc1ccccc1)N(C)C(=O)[C@H](CC(C)C)NC(=O)SC(C)C [Compound 38],kinact/KI,[2],18200 M⁻¹ s⁻¹
same,CC50 at 48 h,in vitro,> 100 µM
same,TI,HRV-14,> 278
same,EC50,HRV-14,0.36 µM
"CCOC(=O)/C=C/[C@H](CCC(N)=O)NC(=O)[C@H](Cc1ccccc1)N(C)C(=O)[C@@H](NC(=O)SCC)C(C)C [Compound 34, Ethyl-3-(Ethylthiocarbonyl-L-Val-L-N-Me-Phe-L-Gln)-E-Propenoate]",kinact/KI,[1],2060 M⁻¹ s⁻¹
same,kinact/KI,[2],13400 M⁻¹ s⁻¹
same,CC50 at 48 h,in vitro,> 100 µM
same,kinact/KI,[3],940 M⁻¹ s⁻¹
same,TI,HRV-14,> 312
same,EC50,HRV-14,0.32 µM
